This note sets out measurements from ChEMBL document CHEMBL4680140, “Minor chemical modifications of the aminosteroid derivative RM-581 lead to major impact on its anticancer activity, metabolic stability and aqueous solubility” (Eur J Med Chem, 2020).

The nature of data set [1]: Solubility of compound in PBS at pH 7.4 at 300 uM after 24 hrs by HPLC-UV analysis. In kind it is physicochemical.
The subject of data set [2] is T47D. Briefly: Antiproliferative activity against human T47D cells assessed as reduction in cell viability at 1 to 5 uM after 72 hrs by MTS assay. In kind it is functional, cell-based. The note with it: dose 1-5 µM. (In general: Tetrazolium assays rely on reduction of a dye to a coloured formazan, in cell work by metabolically active cells.)
In data set [3] the test system is MCF7. Briefly: Antiproliferative activity against human MCF7 cells assessed as reduction in cell viability after 72 hrs by MTS assay. In kind it is functional, cell-based. The note with it: MCF7, 72 h.
The test system of data set [4] is OVCAR-3. Briefly: Antiproliferative activity against human OVCAR-3 cells assessed as reduction in cell viability at 1 to 5 uM after 72 hrs by MTS assay. It is filed as functional, cell-based. The note with it: dose 1-5 µM.
The next data set has as its system Hs 766. Briefly: Antiproliferative activity against human Hs 766 cells assessed as reduction in cell viability at 1 to 5 uM after 72 hrs by MTS assay. It is filed as functional, cell-based. The note with it: dose 1-5 µM.
The test system of data set [5] is T47D. In words: Antiproliferative activity against human T47D cells assessed as reduction in cell viability after 72 hrs by MTS assay. It is filed as functional, cell-based.
Data set [6] in a line: Stability in human liver s9 fraction assessed as parent compound remaining at 10 uM after 1 hr by LC-MS analysis. To be noted: read-out: Stabilty. In kind it is ADME, subcellular.
Data set [7] relates to LAPC4. In words: Antiproliferative activity against human LAPC4 cells assessed as reduction in cell viability after 72 hrs by MTS assay. In kind it is functional, cell-based. The note with it: LAPC4, 72 h.
A further data set has as its system Caov-3 cell line. In words: Antiproliferative activity against human Caov-3 cells assessed as reduction in cell viability at 1 to 5 uM after 72 hrs by MTS assay. In kind it is functional, cell-based. The note with it: dose 1-5 µM.
Data set [8] relates to PANC-1. Briefly: Antiproliferative activity against human PANC-1 cells assessed as reduction in cell viability at 1 to 5 uM after 72 hrs by MTS assay. It is filed as functional, cell-based. To be noted: dose 1-5 µM.
Data set [9] deals with MCF7. Briefly: Antiproliferative activity against human MCF7 cells assessed as reduction in cell viability at 1 to 5 uM after 72 hrs by MTS assay. It is filed as functional, cell-based. To be noted: dose 1-5 µM.
Another data set has as its system PC-3. In words: Antiproliferative activity against human PC-3 cells assessed as reduction in cell viability after 72 hrs by MTS assay. To be noted: PC-3, 72 h. It is filed as functional, cell-based.
The test system of a further data set is LNCaP. In words: Antiproliferative activity against human LNCaP cells assessed as reduction in cell viability after 72 hrs by MTS assay. In kind it is functional, cell-based.
Data set [10] deals with LAPC4. In words: Antiproliferative activity against human LAPC4 cells assessed as reduction in cell viability at 1 to 5 uM after 72 hrs by MTS assay. It is filed as functional, cell-based. The note with it: dose 1-5 µM.
For data set [11], the system named is PANC-1. Briefly: Antiproliferative activity against human PANC-1 cells assessed as reduction in cell viability after 72 hrs by MTS assay. In kind it is functional, cell-based. The note with it: PANC-1, 72 h.
Data set [12] has as its system OVCAR-3. In words: Antiproliferative activity against human OVCAR-3 cells assessed as reduction in cell viability after 72 hrs by MTS assay. To be noted: OVCAR-3, 72 h. It is filed as functional, cell-based.
A further data set deals with BXPC-3. In words: Antiproliferative activity against human BXPC-3 cells assessed as reduction in cell viability at 1 to 5 uM after 72 hrs by MTS assay. In kind it is functional, cell-based. The note with it: dose 1-5 µM.
The subject of a further data set is SK-OV-3. Briefly: Antiproliferative activity against human SK-OV-3 cells assessed as reduction in cell viability at 1 to 5 uM after 72 hrs by MTS assay. It is filed as functional, cell-based. The note with it: dose 1-5 µM.
Data set [13] is described as follows: Solubility of compound in PBS at pH 7.4 at pH 7.4 HPLC analysis. It is filed as physicochemical.
Data set [14] is described as follows: Solubility of compound in PBS at pH 7.4. It is filed as physicochemical.
Data set [15] is described as follows: Solubility of compound in PBS at pH 7.4 by shake flask method. It is filed as physicochemical.

pIC50: −log10 of the molar value. Converted amounts (≈) assume the structure as drawn. The source made the active and inactive calls. The calls are words filed in the database; no cut-off is given here.

As a reminder, the solubility is the concentration that dissolves in the medium under given conditions. Low values mean little dissolved substance, high ones much dissolved substance. Consider `C#C[C@]1(O)CC[C@H]2[C@@H]3CC[C@H]4C[C@H](O)[C@@H](N5CCN(C(=O)[C@@H]6CCCN6C(=O)c6ccc7ccccc7n6)CC5)C[C@]4(C)[C@H]3CC[C@@]21C`, for which the concentration in solution in [1] (solubility at 24 h, 300 µM) was 9 µg/mL (≈ 13.8 µM).
The term pIC50 denotes −log10 of the IC50, conventionally taken in molar units. On to `C#C[C@]1(O)CC[C@H]2[C@@H]3CCc4cc(OC)c(N5CCN(C(=O)[C@@H]6CCCN6C(=O)c6ccc7ccccc7n6)CC5)cc4[C@H]3CC[C@@]21C`, for which the result in the data set with T47D [2], in the data set on OVCAR-3 [4], in the data set on Hs 766, in the data set with Caov-3 cell line, in the data set with PANC-1 [8] and in the data set with MCF7 [9] was Active. For the same compound, the outcome with LAPC4 [10], with BXPC-3 and in the data set with SK-OV-3 was Active. Further, the pIC50 in the data set on MCF7 [3] was 5.59; in the data set with T47D [5] it was 6.30; in the data set on LAPC4 [7], 6.22; in the data set on PC-3, 5.80; in the data set with LNCaP it was 5.92; with PANC-1 [11] it was 5.41. Further, the pIC50 in the data set with OVCAR-3 [12] was 5.30. The remaining at 1 h, 10 µM in data set [6] is 35%. For the same compound, the solubility at 24 h, 300 µM in [1] turned out to be 2 µg/mL (≈ 3.09 µM).
As for `C#CC1(O)CC[C@H]2[C@@H]3CCc4cc(OP(=O)(O)O)c(N5CCN(C(=O)[C@@H]6CCCN6C(=O)c6ccc7ccccc7n6)CC5)cc4[C@H]3CC[C@@]21C` (single isomer, unassigned), the result in the data set on T47D [2], in the data set on OVCAR-3 [4], in the data set on Hs 766, in the data set on Caov-3 cell line, with PANC-1 [8] and in the data set on MCF7 [9] was Active. Moreover, the outcome with LAPC4 [10], in the data set with BXPC-3 and in the data set on SK-OV-3 was Active. Besides, the pIC50 with MCF7 [3] is 5.82; in the data set with T47D [5], 6.52; in the data set with LAPC4 [7], 6.52; with PC-3, 5.89; with LNCaP, 6.22; with PANC-1 [11], 5.59. In addition, the pIC50 in the data set on OVCAR-3 [12] was 5.34. Moreover, in [6], the remaining at 1 h, 10 µM turned out to be 52%. This compound also came in with a solubility at 24 h, 300 µM in data set [1] greater than 720 µg/mL.
As for `CCCSc1ccc2nc(NC(=O)OC)[nH]c2c1` [ALBENDAZOLE], the concentration in solution in [13] (solubility) was 0.74 µg/mL (≈ 2.79 µM). Also, the concentration in solution in data set [1] (solubility at 24 h, 300 µM) came to 0.52 µg/mL (≈ 1.96 µM).
`CC(C)C(=O)Nc1ccc([N+](=O)[O-])c(C(F)(F)F)c1` [FLUTAMIDE] yielded a solubility in data set [14] of 19.9 µg/mL (≈ 72 µM). The solubility at 24 h, 300 µM in data set [1] amounted to 19.9 µg/mL (≈ 72 µM).
As a reminder, the thermodynamic solubility is the concentration in solution at equilibrium with solid. `COc1ccc(Cl)cc1C(=O)NCCc1ccc(S(=O)(=O)NC(=O)NC2CCCCC2)cc1` [GLYBURIDE] yielded a thermodynamic solubility in data set [15] of 5.6 µg/mL (≈ 11.3 µM). In addition, the solubility at 24 h, 300 µM in [1] came out at 6.7 µg/mL (≈ 13.6 µM).
